Among the data in article PMC11593814, “Novel Basidiomycetous Alcohol Oxidase from Cerrena unicolor—Characterisation, Kinetics, and Proteolytic Modifications” (International Journal of Molecular Sciences, 2024) are Km values, retold here.

The subject of the assay is T1, alcohol oxidase (AOX) from Cerrena unicolor FCL139.
T1 construct: native, semi-purified from mycelium (ammonium sulphate, HIC, SEC); octamer stated as typical; no tag
As to the kind of experiment: acetylacetone assay ([…],5-diacetyl-1,4-dihydrolutidine), Michaelis-Menten non-linear fit. Type of assay: biochemical. As to conditions: semi-purified native enzyme; substrate 1-100 mM; pH and temperature of the kinetics not given.
Take `OC[C@H](O)C(O)[C@@H](O)CO` [L-arabinitol]: the Km was 37 ± 3 mM.

In the case of `CO` [Methanol], the Km was 13 ± 1 mM.

Consider `COc1ccc(CO)cc1OC` [Veratryl alcohol], for which the Km is 31 ± 4 mM.
